Experimental data taken from patent publication US11472769B2, “SSAO inhibitors and use thereof” (Eccogene (Shanghai) Co., Ltd., priority 2019, dated 2022).

Legend:
[1] = Brain Kpuu assay (BBB assay and protein binding assay); type: in vivo; conditions: ICR mice, 1 mg/kg IV, plasma and brain collected at 5 minutes after dosing; for Kp uu at 5 min: mouse, read-out: Kpuu (mouse, t = 5 min)
Protocol: For example, Brain Kpuu assay composed of Blood-Brain-Barrier (BBB) assay and protein binding assay, can be utilized. The protein binding assay comprises equilibrium dialysis against brain lysate and plasma to calculate fu(brain) and fu(plasma), respectively. The BBB assay can be conducted in experimental animals at 1 mg/kg IV dosage. After dosing with the compounds of the present application, plasma and brain samples can be collected to analyze compound concentration (Cplasma and Cbrain). The Kpuu value of the tested compounds can be calculated by the equation: […]
Brain Kpuu assay is composed of Blood-Brain-Barrier (BBB) assay and protein binding assay, which are conducted in ICR mice. Protein binding assays were performed in 96-well plates, using equilibrium dialysis against brain lysate and plasma to calculate fu(brain) and fu(plasma), respectively. BBB assays were conducted in mice at 1 mg/kg IV dosage. Plasma and brain samples were collected at 5 minutes after dosing to analyze compounds concentration (Cplasma and Cbrain). The Kpuu value of the tested compounds was calculated by the equation: […]

[2] = biological target: recombinant hSSAO (Homo sapiens (Human), UniProt Q16853); experiment: SSAO Activity Assay (MAO-Glo assay kit); type: biochemical; conditions: 40 μM substrate, 30 mins pre-incubation
Sequence of recombinant hSSAO (Q16853 whole entry): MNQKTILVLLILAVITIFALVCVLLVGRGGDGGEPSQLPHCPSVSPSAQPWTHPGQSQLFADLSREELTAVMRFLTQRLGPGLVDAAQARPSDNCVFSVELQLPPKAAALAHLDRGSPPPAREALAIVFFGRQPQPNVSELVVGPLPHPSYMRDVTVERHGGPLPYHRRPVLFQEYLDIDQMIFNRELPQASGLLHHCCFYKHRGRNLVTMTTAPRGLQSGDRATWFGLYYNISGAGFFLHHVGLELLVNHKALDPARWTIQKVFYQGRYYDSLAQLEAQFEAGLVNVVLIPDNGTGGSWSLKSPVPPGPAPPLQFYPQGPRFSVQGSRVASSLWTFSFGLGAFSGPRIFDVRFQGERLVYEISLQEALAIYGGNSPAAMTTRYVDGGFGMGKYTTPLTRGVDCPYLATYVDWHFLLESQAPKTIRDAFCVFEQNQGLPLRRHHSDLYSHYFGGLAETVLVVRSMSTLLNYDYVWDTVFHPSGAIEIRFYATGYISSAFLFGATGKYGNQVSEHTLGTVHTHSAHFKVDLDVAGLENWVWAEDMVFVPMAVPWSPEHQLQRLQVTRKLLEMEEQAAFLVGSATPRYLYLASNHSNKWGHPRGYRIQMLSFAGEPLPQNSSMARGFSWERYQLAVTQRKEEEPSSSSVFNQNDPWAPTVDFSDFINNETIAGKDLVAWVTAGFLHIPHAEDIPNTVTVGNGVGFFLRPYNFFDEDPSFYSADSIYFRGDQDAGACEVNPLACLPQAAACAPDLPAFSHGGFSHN
How it was run: (§1)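 Substrate was 4 μM in MAO-B buffer for hMAO-B and 40 μM in MAO-A buffer for hSSAO and hMAO-A. Each enzyme first saw compound (0.1% DMSO vehicle) for 30 min at room temperature.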

[3] = biological target: recombinant hMAO-B (Homo sapiens (Human), UniProt P27338); experiment: MAO-B activity assay (MAO-Glo assay kit); type: biochemical; conditions: 4 μM substrate, 30 mins pre-incubation
Sequence of recombinant hMAO-B (P27338 whole entry): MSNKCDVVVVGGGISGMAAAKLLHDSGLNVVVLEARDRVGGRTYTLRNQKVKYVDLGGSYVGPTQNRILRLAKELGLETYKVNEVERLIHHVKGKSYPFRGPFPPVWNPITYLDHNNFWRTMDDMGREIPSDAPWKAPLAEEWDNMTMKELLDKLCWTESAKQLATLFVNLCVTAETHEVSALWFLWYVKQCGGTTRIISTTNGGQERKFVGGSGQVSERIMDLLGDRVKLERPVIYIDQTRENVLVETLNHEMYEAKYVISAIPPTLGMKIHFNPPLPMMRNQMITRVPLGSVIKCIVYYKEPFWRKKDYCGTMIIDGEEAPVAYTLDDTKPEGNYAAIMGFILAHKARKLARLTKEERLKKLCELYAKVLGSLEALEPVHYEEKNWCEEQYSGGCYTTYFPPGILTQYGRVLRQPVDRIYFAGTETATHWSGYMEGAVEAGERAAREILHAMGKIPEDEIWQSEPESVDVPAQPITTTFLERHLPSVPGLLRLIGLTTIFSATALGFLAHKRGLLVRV
How it was run: as §1

[4] = biological target: recombinant hMAO-A (Homo sapiens (Human), UniProt P21397); experiment: MAO-A activity assay (MAO-Glo assay kit); type: biochemical; conditions: 40 μM substrate, 30 mins pre-incubation
Sequence of recombinant hMAO-A (P21397 whole entry): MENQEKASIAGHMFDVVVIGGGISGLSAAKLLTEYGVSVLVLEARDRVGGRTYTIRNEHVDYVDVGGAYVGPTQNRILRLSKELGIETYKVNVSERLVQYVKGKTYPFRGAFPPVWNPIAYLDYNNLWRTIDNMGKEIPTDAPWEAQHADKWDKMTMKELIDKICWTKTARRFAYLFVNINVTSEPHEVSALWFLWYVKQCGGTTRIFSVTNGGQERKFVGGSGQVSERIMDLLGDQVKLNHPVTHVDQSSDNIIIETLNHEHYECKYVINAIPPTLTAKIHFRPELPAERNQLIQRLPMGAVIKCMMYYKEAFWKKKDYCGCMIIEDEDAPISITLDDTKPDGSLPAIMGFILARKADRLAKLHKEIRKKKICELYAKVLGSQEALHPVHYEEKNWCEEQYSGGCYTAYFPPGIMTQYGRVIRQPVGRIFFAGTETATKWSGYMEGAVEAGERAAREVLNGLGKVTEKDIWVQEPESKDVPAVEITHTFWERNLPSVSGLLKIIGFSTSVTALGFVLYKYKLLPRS
How it was run: as §1

SMILES | Kpuu (mouse, t = 5 min) [1] | IC50 [2] | Kp uu at 5 min [1] | IC50 [3] | IC50 [4]
CC(C)(C)NC(=O)c1ccc(OC/C(=C/F)CN)cc1.Cl [BI 1467335 (PXS-4728A), reference compound] | 0.23 |  |  |  | 
NC/C(=C\F)COc1ccc(S(=O)(=O)CC2CCN(C(=O)C3CC3)CC2)cc1 [Compound 44, (E)-(4-(((4-((2-(aminomethyl)-3-fluoroallyl)oxy)phenyl)sulfonyl)methyl)piperidin-1-yl)(cyclopropyl)methanone] |  | 0.02 to 0.1 µM | 0.025 | > 30 µM | > 30 µM
NC/C(=C\F)COc1ccc(S(=O)(=O)CN2CCCCC2=O)cc1 [Compound 129, (E)-1-(((4-((2-(aminomethyl)-3-fluoroallyl)oxy)phenyl)sulfonyl)methyl)piperidin-2-one] |  | 0.02 to 0.1 µM |  | 10 to 30 µM | > 30 µM
NC/C(=C\F)COc1ccc(S(=O)(=O)CN2CCOCC2=O)c(F)c1 [Compound 131, (E)-4-(((4-((2-(aminomethyl)-3-fluoroallyl)oxy)-2-fluorophenyl)sulfonyl)methyl) morpholin-3-one] |  | 0.02 to 0.1 µM |  | > 30 µM | > 30 µM
CC1(C)COCC(=O)N1CS(=O)(=O)c1ccc(OC/C(=C/F)CN)cc1 [Compound 132, (E)-4-(((4-((2-(aminomethyl)-3-fluoroallyl)oxy)phenyl)sulfonyl)methyl)-5,5-dimethylmorpholin-3-one] |  | 0.02 to 0.1 µM |  | < 10 µM | > 30 µM
N#CC1(CS(=O)(=O)c2ccc(OC/C(=C/F)CN)cc2F)CCOCC1 [compound 13, (E)-4-(((4-((2-(aminomethyl)-3-fluoroallyl)oxy)-2-fluorophenyl)sulfonyl)methyl) tetrahydro-2H-pyran-4-carbonitrile] |  | 0.02 to 0.1 µM |  | 10 to 30 µM | 10 to 30 µM
CN(C)C(=O)C12CCC(CS(=O)(=O)c3ccc(OC/C(=C/F)CN)cc3)(CC1)CC2 [compound 62, (E)-4-(((4-((2-(aminomethyl)-3-fluoroallyl)oxy)phenyl)sulfonyl)methyl)-N,N-dimethylbicyclo[2.2.2]octane-1-carboxamide] |  | 0.02 to 0.1 µM | 0.034 | 10 to 30 µM | 

Next, values leading:

Kpuu (mouse, t = 5 min) [1] | IC50 [2] | Kp uu at 5 min [1] | IC50 [3] | IC50 [4] | SMILES
 | < 0.02 µM | 0.018 | 10 to 30 µM | > 30 µM | NC/C(=C\F)COc1ccc(S(=O)(=O)CC23CCC(C(=O)NCC(F)(F)F)(CC2)CC3)cc1 [Compound 65, (E)-4-(((4-((2-(aminomethyl)-3-fluoroallyl)oxy)phenyl)sulfonyl)methyl)-N-(2,2,2-trifluoroethyl)bicyclo[2.2.2] octane-1-carboxamide]
 | 0.02 to 0.1 µM | 0.01 | 10 to 30 µM | > 30 µM | CC(C)(C)NC(=O)C12CCC(CS(=O)(=O)c3ccc(OC/C(=C/F)CN)cc3)(CC1)CC2 [Compound 70, (E)-4-(((4-((2-(aminomethyl)-3-fluoroallyl)oxy)phenyl)sulfonyl)methyl)-N-(tert-butyl)bicyclo[2.2.2]octane-1-carboxamide]
 | < 0.02 µM | 0.077 | 10 to 30 µM | > 30 µM | CC1(C(=O)NC23CCC(CS(=O)(=O)c4ccc(OC/C(=C/F)CN)cc4)(CC2)CC3)CC1 [Compound 91, (E)-N-(4-(((4-((2-(aminomethyl)-3-fluoroallyl)oxy)phenyl)sulfonyl)methyl)bicyclo[2.2.2]octan-1-yl)-1-methylcyclopropane-1-carboxamide]
 | 0.02 to 0.1 µM |  | > 30 µM | > 30 µM | NC/C(=C\F)COc1ccc(S(=O)(=O)CN2CCOCC2=O)cc1 [Compound 130, (E)-4-(((4-((2-(aminomethyl)-3-fluoroallyl)oxy)phenyl)sulfonyl)methyl)morpholin-3-one]
 | < 0.02 µM |  | > 30 µM | > 30 µM | NC/C(=C/F)COc1ccc(S(=O)(=O)CC23CCC(C(=O)NC4CCC4)(CC2)CC3)cc1 [Compound 140, (Z)-4-(((4-((2-(aminomethyl)-3-fluoroallyl)oxy)phenyl)sulfonyl)methyl)-N-cyclobicyclo[2.2.2]octane-1-carboxamide]
 | 0.02 to 0.1 µM |  | > 30 µM | > 30 µM | CC(C)(C)NC(=O)C12CCC(CS(=O)(=O)c3ccc(OC/C(=C\F)CN)cc3)(CC1)CC2 [Compound 141, (Z)-4-(((4-((2-(aminomethyl)-3-fluoroallyl)oxy)phenyl)sulfonyl)methyl)-N-(tert-butyl)bicyclo[2.2.2]octane-1-carboxamide]
 | < 0.02 µM |  | > 30 µM | > 30 µM | CC(C)(C)C(=O)NC12CCC(CS(=O)(=O)c3ccc(OC/C(=C\F)CN)cc3)(CC1)CC2 [Compound 142, (Z)-N-(4-(((4-((2-(aminomethyl)-3-fluoroallyl)oxy)phenyl)sulfonyl)methyl)bicyclo[2.2.2]octan-1-yl)pivalamide]
 | 0.02 to 0.1 µM |  | < 10 µM | > 30 µM | CC(C)NC(=O)C1CCC(CS(=O)(=O)c2ccc(OC/C(=C/F)CN)cc2)CC1 (centres unmarked) [Compound 144, (E)-4-(((4-((2-(aminomethyl)-3-fluoroallyl)oxy)phenyl)sulfonyl)methyl)-N-isopropylcyclohexane-1-carboxamide]
 | < 0.02 µM |  | > 30 µM | > 30 µM | CC(C)C(=O)N1CCC(CS(=O)(=O)c2ccc(OC/C(=C/F)CN)cc2)CC1 [compound 37, (E)-1-(4-(((4-((2-(aminomethyl)-3-fluoroallyl)oxy)phenyl)sulfonyl)methyl)piperidin-1-yl)-2-methylpropan-1-one]
